# Source: article PMC4604765, “Eye drop delivery of pigment epithelium-derived factor-34 promotes retinal ganglion cell neuroprotection and axon regeneration” (Molecular and Cellular Neurosciences, 2015)
# Where two headings read alike, the source gives them in different places. No end group written: not given here.
# Legend:
# [1] = system: retinal ganglion cells (RGCs); assay: RGC survival after optic nerve crush (FluroGold backfilling, retinal wholemounts); format: in vivo, rat; conditions: weekly intravitreal injection, 2.68 nM versus 1.88 nM, 21 days after ONC
# Description: (§1) In a separate set of experiments comprising the same treatment groups, 6 rats/treatment (i.e. 12 eyes/optic nerves/treatment) were used to evaluate RGC axon regeneration by immunostaining with growth-associated protein-43 (GAP-43) in the optic nerve.
# In further experiments, 12 rats (24 eyes/optic nerves)/treatment received 1.88 nM PEDF-34 eye drops daily. Six rats (12 eyes)/treatment were used to assess RGC survival at 21 days using FG backfilling, whilst the remaining 6 rats (12 eyes/optic nerves)/treatment were used to evaluate RGC axon regeneration at 21 days by GAP-43 immunohistochemistry. […]
# Nineteen days after ONC, FG (Cambridge Biosciences, Cambridge, UK) was injected into the optic nerve, between the lamina cribrosa and the ONC site ([Vigneswara et al., 2013, 2014]). […] The identity of individual retinae was anonymised by a second investigator before image capture using a Zeiss epifluorescent microscope and the number of FG^+ RGCs counted in ImagePro Version 6.0 (Media Cybernetics) from captured images of 12 rectangular areas, 3 from each quadrant, placed at radial distances from the centre of the optic disc of the inner (1/6 eccentricity), midperiphery (1/2 eccentricity) and outer retina (5/6 eccentricity). The mean densities of FG^+ RGCs/mm^2 for each retina were determined.
# RGC axons = assay: RGC axon regeneration after optic nerve crush (GAP-43 immunohistochemistry of optic nerve); format: in vivo, rat; conditions: 21 days after ONC; for number of GAP-43+ axons distal from the lesion site: daily eye drops 1.88 nM; for number of GAP-43+ axons in distal optic nerve stump: weekly intravitreal 1.88 nM
# Description: as §1
# In further experiments, 12 rats (24 eyes/optic nerves)/treatment received 1.88 nM PEDF-34 eye drops daily. Six rats (12 eyes)/treatment were used to assess RGC survival at 21 days using FG backfilling, whilst the remaining 6 rats (12 eyes/optic nerves)/treatment were used to evaluate RGC axon regeneration at 21 days by GAP-43 immunohistochemistry.
# All animal procedures were licenced and approved by the United Kingdom Home Office and the University of Birmingham ethical review committee and conformed to the Federation of European Laboratory Animal Associations (FELASA) guidelines. Optic nerves were exposed surgically in anaesthetised adult female Sprague–Dawley rats (170–220 g) through a supraorbital approach and crushed bilaterally using calibrated watchmakers forceps, 2 mm from the lamina cribrosa as described by us previously ([Vigneswara et al., 2013, 2014]).
# Either PBS, or 0.268, 0.67, 1.34, 1.88, or 2.68 nM PEDF dissolved in 5 μl of sterile PBS was injected intravitreally immediately after ONC (0 days) and repeated at 7 and 14 days after ONC with the same doses of PEDF. […] Animals survived for 19 days before FG back-labelling and killing by rising CO2 levels 2 days later, and eyes/optic nerves harvested for retinal FG wholemounts.
# Animals were killed with an overdose of CO2 and intracardially perfused with 4% formaldehyde, eyes and optic nerves were immersion fixed in 4% formaldehyde for a further 2 h before cryoprotection in a graded series of sucrose. Eyes and optic nerves were embedded in optimal cutting temperature (OCT) compound (Raymond A. Lamb, Eastbourne, UK) and stored at − 80 °C. Subsequently, 15 μm-thick parasagittal eye or longitudinal optic nerve sections were cut using a cryostat (Brights Instruments, Huntingdon, UK), adhered onto glass slides and stored at − 20 °C until required.
# Immunohistochemistry was performed as described by us previously ([Vigneswara et al., 2013, 2014]). Briefly, sections were thawed, washed at RT in PBS and permeabilised. Non-specific binding sites were blocked in 3% bovine serum albumin (BSA) containing 0.1% Triton X-100 and then sections were incubated in primary antibody diluted in PBS containing 3% BSA and 0.05% Tween-20, overnight at 4 °C (16–18 h). Monoclonal anti-GAP-43 antibody (1:500 dilution; Invitrogen) stained regenerating axons in optic nerve sections (Table 1). […] Sections were then washed in PBS and incubated with either Alexa Fluor 488 or Texas Red-labelled secondary antibodies (1:400 dilution; Invitrogen) for 1 h at RT, washed in PBS, mounted in Vectamount containing DAPI (Vector Laboratories) and examined with a Zeiss Axioplan 2 fluorescent microscope, equipped with an AxioCam HRc camera and Axiovision software. The negative control sections were used to set the background threshold levels of fluorescence before image capture.
# Regenerating axons in the optic nerve were quantified using previously published methods ([Leon et al., 2000; Lorber et al., 2009; Vigneswara et al., 2013, 2014]). […] Briefly, an observer blinded to the identity of the slides […] through each nerve (n = 6 rats/12 optic nerves/treatment).
# [2] = Stability in culture media and on long-term storage; conditions: no data shown
# [3] = single eye drop, ELISA
sequence,measurement,setting,value
DPFFKVPVNKLAAAVSNFGYDLYRVRSSTSPTTN [PEDF-34],RGC survival on increasing the dose,[1],did not improve
same,number of GAP-43+ axons distal from the lesion site,"RGC axons; 200 μm distal, n = 6 rats/12 optic nerves",4049 ± 355 axons
same,number of GAP-43+ axons distal from the lesion site,RGC axons; 500 μm distal,2893 ± 315 axons
same,number of GAP-43+ axons distal from the lesion site,RGC axons; 1000 μm distal,2043 ± 120 axons
same,number of GAP-43+ axons distal from the lesion site,RGC axons; 1500 μm distal,1285 ± 126 axons
same,number of GAP-43+ axons distal from the lesion site,RGC axons; 2000 μm distal,884 ± 139 axons
same,number of GAP-43+ axons distal from the lesion site,RGC axons; 2500 μm distal,582 ± 155 axons
same,number of GAP-43+ axons in distal optic nerve stump,"RGC axons; 200 μm from the lesion site, n = 6 rats/12 optic nerves",2038 ± 234 axons
same,number of GAP-43+ axons in distal optic nerve stump,RGC axons; 500 μm from the lesion site,1733 ± 237 axons
same,number of GAP-43+ axons in distal optic nerve stump,RGC axons; 1000 μm from the lesion site,1462 ± 175 axons
same,number of GAP-43+ axons in distal optic nerve stump,RGC axons; 1500 μm from the lesion site,945 ± 100 axons
same,number of GAP-43+ axons in distal optic nerve stump,RGC axons; 2000 μm from the lesion site,79 ± 44 axons
same,stability in culture media,[2]; PEDF-34 compared with PEDF-44,equally stable
same,neurotrophic properties after long-term storage,[2],retained their neurotrophic properties
same,level of total PEDF in the retina,"[3]; 1.88 nM dose (peak), 0.5 h",0.18 ± 0.007 nM
same,level of total PEDF in the vitreous,"[3]; 1.88 nM dose (peak), 0.5 h, 6 animals (12 eyes)",0.42 ± 0.01 nM
same,peak level of total PEDF in the retina,[3]; 4 h,0.24 ± 0.005 nM
same,peak level of total PEDF in the vitreous,[3]; 4 h,0.39 ± 0.004 nM
same,peak level of total PEDF in the retina,[3]; 24 h,0.12 ± 0.002 nM
same,peak level of total PEDF in the vitreous,[3]; 24 h,0.21 ± 0.004 nM
